Where a SMILES comes first, the peptide text is derived from it. Bridges are numbered along the chain shown (N, C = ends).
Key:
[1] = test system: NaV1.7 with DII S3-S4 loop of NaV1.8; experiment: Voltage-dependence of activation, NaV1.7/NaV1.8 chimera DII S3-S4; format: cell-based, human; settings: Eo1a 10 μM; NaV1.7 with NaV1.8 DII S3-S4; HEK293 β1/β2, transient; mean ± SEM, n = 3–6 cells
Method: (§1) Human Embryonic Kidney (HEK) 293 cells stably expressing human NaV1.1 to NaV1.7/β1 (SB Drug Discovery, Glasgow, United Kingdom), Chinese Hamster Ovary (CHO) cells stably expressing human NaV1.8/β3 in a tetracycline-inducible system (ChanTest, Cleveland, OH, United States), and HEK293 cells stably expressing rat transient receptor potential vanilloid 1 (TRPV1) were cultured as previously described ([Yin et al., 2020]). Human KV2.1 and NaV1.7 mutants were transiently transfected into HEK293 cells stably expressing β1/β2 using Lipofectamine 2000 (Thermo Fisher Scientific, Scoresby, VIC, Australia) and used for patch-clamp experiments 48 h after transfection. Cells were grown in an incubator at 37°C with 5% CO2 and passaged every 3–4 d (at 70–80% confluency) using TrypLE Express (Thermo Fisher Scientific).
Wild-type (WT) hNaV1.7 cDNA (NM_002,977, a gift from Dr James Cox, University College London) was subjected to in vitro site-directed mutagenesis using the QuikChange™ XL mutagenesis kit (Agilent Technologies) following the manufacturer’s instructions. NaV1.7 mutants were generated by substituting the domain II (DII) S1-S2 loop, the DII S3-S4 loop, the domain IV (DIV) S1-S2 loop and the DIV S3-S4 loop in NaV1.7 with the corresponding regions of NaV1.8. The mutations were verified by sequencing at the Brisbane node of the Australian Genome Research Facility. […]

[2] = test system: DRG neurons; experiment: Calcium imaging of dorsal root ganglion (DRG) neurons; format: cell-based, mouse
Source text: Adult male C57BL/6J mice aged 4–8 weeks were sourced from the Animal Resource Centre (Canning Vale, Western Australia). Adult male NaV1.8 knockouts ([Nassar et al., 2004]) (aged 8–11 weeks) and wild-type littermates were housed and tested at University College London. Animals were housed in groups of three or four per cage under 12-h light-dark cycles and were provided with standard rodent chow and water ad libitum. Ethical approval for experiments involving animals was obtained from The University of Queensland animal ethics committee (TRI/IMB/093/17, IMB/PACE/421/18) and the United Kingdom Home Office (project licence PPL 70/7382). All experiments were conducted in accordance with the International Association for the Study of Pain Guidelines for the Use of Animals in Research and the Australian Code of Practice for the Care and Use of Animals for Scientific Purposes, 8th edition (2013).
For Ca^2+ imaging experiments, DRG neurons were isolated from 4 week old male C57BL/6J mice as previously described ([Robinson et al., 2018]). DRG neurons were dissociated and plated in 96-well poly-D-lysine-coated culture plates grown in Dulbecco’s modified Eagle’s medium supplemented with 10% fetal bovine serum (FBS) and penicillin/streptomycin and cultured for 24 h at 37°C with 5% CO2. Dissociated DRG neurons were loaded with Fluo-4 AM calcium indicator (5 μM) for 1 h, then washed with Hanks’ balanced salt solution (HBSS) containing 20 mM HEPES. Fluorescence was measured using a Nikon Ti-E Deconvolution inverted microscope, in conjunction with a Lumencor Spectra LED light source (excitation, 485 nm; emission, 521 nm). Images were acquired at 1 frame per s using a 20× objective. […] Only excitable cells responding to KCl were included for analysis. Cells were classified as responders if they had at least a 1.5-fold increase in fluorescence over baseline.

[3] = test system: NaV1.7; experiment: I-V protocol, whole-cell patch-clamp, NaV1.7; format: cell-based, human; settings: Eo1a 10 μM
Method: as §1
(§2) Automated whole-cell patch-clamp recordings were performed with a QPatch-16 automated electrophysiology platform (Sophion Bioscience, Ballerup, Denmark) using single-hole (QPlate 16 with a standard resistance of 2 ± 0.4 MΩ) or multi-hole (QPlate 16X with a standard resistance 0.2 ± 0.04 MΩ, NaV1.8 only) as previously described ([McMahon et al., 2020]).
(§3) The extracellular solution (ECS) consisted of (in mM) 145 NaCl (replaced with 70 choline chloride for NaV1.4, NaV1.5 and NaV1.7), 4 KCl, 2 CaCl2, 1 MgCl2, 10 HEPES, and 10 glucose, pH to 7.4 with NaOH (adjusted to 305 mOsm/L with sucrose). For NaV recordings the intracellular solution (ICS) consisted of (in mM) 140 CsF, 1 EGTA, 5 CsOH, 10 HEPES, and 10 NaCl, pH to 7.3 with CsOH (adjusted to 320 mOsm/L with sucrose). For KV2.1 recordings the ICS consisted of (in mM) 50 KCl, 60 KF, 10 EGTA, 10 HEPES, 10 NaCl pH to 7.3 with KOH (adjusted to 320 mOsm/L with sucrose). TTX (1 μM) was added to the ECS for NaV1.8 recordings to inhibit background endogenous TTX sensitive current in CHO cells.
I-V curves were obtained with a holding potential of −90 mV followed by a series of 500 ms step pulses that ranged from −110 to +80 mV in 5-mV increments (repetition interval 5 s) before and after 5 min incubation with Eo1a (10 μM). Conductance-voltage (G-V) curves were obtained by calculating the conductance (G) at each voltage (V) using equation G = I/(V − V rev ), where V rev is the reversal potential. G-V curves were fitted with a Boltzmann equation. […]
(§4) The time constant of fast inactivation (τ) was computed by fitting the current decay traces with a single exponential function using QPatch Assay Software 5.6 (Sophion). The time to peak was calculated from pulse onset to peak inward current using QPatch Assay Software 5.6 (Sophion).

[4] = target: NaV1.8 (Homo sapiens, UniProt Q9Y5Y9); experiment: I-V protocol, whole-cell patch-clamp, NaV1.8; format: cell-based; settings: Eo1a 10 μM
Method: as §1, §2, §3
I-V curves were obtained with a holding potential of −90 mV followed by a series of 500 ms step pulses that ranged from −110 to +80 mV in 5-mV increments (repetition interval 5 s) before and after 5 min incubation with Eo1a (10 μM). Conductance-voltage (G-V) curves were obtained by calculating the conductance (G) at each voltage (V) using equation G = I/(V − V rev ), where V rev is the reversal potential. G-V curves were fitted with a Boltzmann equation. The voltage dependence of steady-state fast inactivation was examined using a 10-ms pulse of −20 mV (+10 mV for NaV1.8) immediately after the 500-ms step above to assess the available non-inactivated channels.
as §4

NaV1.8, sequence (Q9Y5Y9 whole entry): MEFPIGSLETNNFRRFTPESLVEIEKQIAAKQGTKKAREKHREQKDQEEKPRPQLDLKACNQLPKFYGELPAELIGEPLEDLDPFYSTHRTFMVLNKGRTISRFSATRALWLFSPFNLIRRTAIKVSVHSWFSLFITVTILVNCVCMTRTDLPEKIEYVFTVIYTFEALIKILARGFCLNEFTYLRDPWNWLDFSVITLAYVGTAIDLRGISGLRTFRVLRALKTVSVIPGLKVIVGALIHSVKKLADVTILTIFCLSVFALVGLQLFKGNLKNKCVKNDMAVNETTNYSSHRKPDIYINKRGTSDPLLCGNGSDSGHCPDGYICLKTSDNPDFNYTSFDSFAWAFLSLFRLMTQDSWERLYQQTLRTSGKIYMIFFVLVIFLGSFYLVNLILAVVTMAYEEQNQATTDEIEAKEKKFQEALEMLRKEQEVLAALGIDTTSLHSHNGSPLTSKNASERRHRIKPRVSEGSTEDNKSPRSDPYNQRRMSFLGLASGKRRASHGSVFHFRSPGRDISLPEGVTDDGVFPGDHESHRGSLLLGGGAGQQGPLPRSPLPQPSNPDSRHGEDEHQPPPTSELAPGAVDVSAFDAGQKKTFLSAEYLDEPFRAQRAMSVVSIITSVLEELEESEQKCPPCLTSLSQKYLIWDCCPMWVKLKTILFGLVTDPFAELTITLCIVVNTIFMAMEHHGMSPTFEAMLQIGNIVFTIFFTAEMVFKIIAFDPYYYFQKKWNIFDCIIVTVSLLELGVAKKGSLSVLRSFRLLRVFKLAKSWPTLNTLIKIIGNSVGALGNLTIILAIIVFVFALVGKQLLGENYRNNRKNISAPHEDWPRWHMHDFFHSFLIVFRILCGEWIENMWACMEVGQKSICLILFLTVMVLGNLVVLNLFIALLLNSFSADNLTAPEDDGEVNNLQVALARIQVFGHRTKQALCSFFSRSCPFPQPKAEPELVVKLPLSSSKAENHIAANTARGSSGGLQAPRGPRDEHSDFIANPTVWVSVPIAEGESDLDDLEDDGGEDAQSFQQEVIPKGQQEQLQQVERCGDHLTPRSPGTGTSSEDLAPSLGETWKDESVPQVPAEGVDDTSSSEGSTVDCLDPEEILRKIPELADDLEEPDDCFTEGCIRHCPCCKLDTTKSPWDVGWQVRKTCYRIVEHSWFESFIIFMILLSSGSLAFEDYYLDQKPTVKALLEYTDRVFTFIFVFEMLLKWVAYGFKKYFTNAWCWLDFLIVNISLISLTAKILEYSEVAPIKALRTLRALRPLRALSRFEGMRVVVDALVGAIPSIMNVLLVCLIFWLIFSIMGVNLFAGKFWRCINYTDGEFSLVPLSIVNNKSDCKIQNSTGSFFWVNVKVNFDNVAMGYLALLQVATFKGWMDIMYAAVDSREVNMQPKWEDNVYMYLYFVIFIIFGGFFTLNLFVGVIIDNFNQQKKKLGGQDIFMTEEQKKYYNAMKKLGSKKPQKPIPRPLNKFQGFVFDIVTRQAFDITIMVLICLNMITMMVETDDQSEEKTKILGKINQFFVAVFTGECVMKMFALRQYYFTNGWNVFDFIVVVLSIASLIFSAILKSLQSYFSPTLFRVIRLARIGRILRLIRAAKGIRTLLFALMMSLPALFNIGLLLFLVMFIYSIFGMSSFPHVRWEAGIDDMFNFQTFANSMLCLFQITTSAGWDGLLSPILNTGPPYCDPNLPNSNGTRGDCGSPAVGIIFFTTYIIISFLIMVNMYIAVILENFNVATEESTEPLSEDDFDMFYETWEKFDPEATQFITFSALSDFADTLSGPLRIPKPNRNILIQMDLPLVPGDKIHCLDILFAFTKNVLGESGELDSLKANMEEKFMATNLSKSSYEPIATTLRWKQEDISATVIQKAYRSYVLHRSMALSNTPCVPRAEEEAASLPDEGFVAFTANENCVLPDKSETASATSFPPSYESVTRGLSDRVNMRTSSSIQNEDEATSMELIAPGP

CC[C@H](C)[C@@H]1NC(=O)[C@H](CCCNC(=N)N)NC(=O)[C@@H]2CSSC[C@@H]3NC(=O)CNC(=O)CNC(=O)[C@H](CC(C)C)NC(=O)[C@H](Cc4ccccc4)NC(=O)[C@H](Cc4c[nH]c5ccccc45)NC(=O)[C@H](CCCNC(=N)N)NC(=O)[C@@H](NC(=O)[C@@H](N)CC(=O)O)CSSC[C@H](NC(=O)[C@H](CSSC[C@@H](C(=O)N[C@@H](C)C(=O)N[C@@H](Cc4c[nH]c5ccccc45)C(=O)N[C@@H](CC(=O)O)C(=O)NCC(=O)N[C@H](C(=O)N[C@@H](Cc4ccccc4)C(N)=O)[C@@H](C)O)NC(=O)[C@H](Cc4ccc(O)cc4)NC(=O)[C@H](CCCCN)NC(=O)[C@H]([C@@H](C)CC)NC(=O)[C@H](Cc4ccc(O)cc4)NC(=O)CNC(=O)[C@H](CC(=O)O)NC1=O)NC(=O)[C@H](CC(=O)O)NC(=O)[C@H](CO)NC(=O)[C@H](CC(=O)O)NC(=O)[C@H](CCCCN)NC(=O)[C@H](CO)NC3=O)C(=O)N[C@@H](CCCCN)C(=O)N[C@@H](Cc1c[nH]cn1)C(=O)N[C@@H](CC(C)C)C(=O)N[C@@H](C)C(=O)N2 [Eo1a] (H-DCRWFLGGCSKDSDCCKHLACRIDGYIKYCAWDGTF-NH2; disulfide 2-16, 9-21, 15-30 (inferred); N-terminus assumed)
ΔV1/2 activation [1]: −20.4 ± 1.4 mV
neurons activated in the presence of TTX ([2]; Eo1a 10 μM + TTX 1 μM, dissociated DRG neurons of C57BL/6J mice, Fluo-4, mean ± SEM of 2–3 wells): 30 ± 2%
neurons with Ca2+ influx (activated) ([2]; Eo1a 10 μM, dissociated DRG neurons of C57BL/6J mice, Fluo-4, responder = at least 1.5-fold fluorescence increase, without TTX, mean ± SEM of 2–3 wells): 44 ± 3%
size of activated neurons ([2]; Eo1a 10 μM, n = 473 alone, n = 317 with TTX, distribution did not change with TTX): smaller size
peak current I/I0 ([3]; 5 min, peak from I-V protocol at any voltage, normalised to buffer control, HEK293 hNaV1.7/β1, mean ± SEM, n = 4–6 cells): 0.63 ± 0.10
V1/2 activation ([3]; NaV1.7, 5 min, control −26.1 ± 1.5 mV, mean ± SEM, n = 4–6): −32.9 ± 2.9 mV
V1/2 inactivation (steady-state fast inactivation) ([3]; NaV1.7, 5 min, control −65.5 ± 1.4 mV, mean ± SEM, n = 4–6): −69.1 ± 4.3
effect on fast inactivation ([3]; NaV1.7, test pulse −20 mV): delayed fast-inactivation
ΔV50 voltage-dependence of steady-state fast inactivation ([4]; 5 min, CHO cells, hNaV1.8/β3, 10-ms pulse to +10 mV after 500-ms step, hyperpolarising shift, mean ± SEM, n = 4 cells): –15.5 ± 1.8 mV
ΔV50 voltage-dependence of activation ([4]; 5 min, CHO cells, hNaV1.8/β3, Boltzmann fit, hyperpolarising shift vs before addition, mean ± SEM, n = 4 cells): –20.5 ± 1.2 mV
peak current I/I0 ([4]; 5 min, peak from I-V protocol at any voltage, normalised to buffer control, CHO hNaV1.8/β3, mean ± SEM, n = 4–6 cells): 1.8 ± 0.08
window current ([4]; NaV1.8, n = 4 cells): comparatively unchanged
activation kinetics (time to peak) ([4]; NaV1.8, potentials between −5 mV and +45 mV, n = 4 cells, two-way ANOVA): without significantly altering
fast inactivation kinetics (time constant) ([4]; NaV1.8, single exponential fit, −5 mV to +45 mV, n = 4 cells, two-way ANOVA): without significantly altering
V1/2 activation ([4]; NaV1.8, 5 min, control +7.0 ± 1.8 mV, *p < 0.05, mean ± SEM, n = 4–6): −13.5 mV
V1/2 inactivation (steady-state fast inactivation) ([4]; NaV1.8, 5 min, control −27.4 ± 2.7 mV, *p < 0.05, mean ± SEM, n = 4–6): −42.9 ± 2.1*
